Reference: ChEMBL document CHEMBL1157904, “Discovery of pyrazolthiazoles as novel and potent inhibitors of bacterial gyrase” (Bioorg Med Chem Lett, 2010)
Values after ≈ are worked out from the molar mass of the structure shown. Active and inactive are the calls of the source. The rule behind the calls is not given here.

Tests used:
Escherichia coli [1] = assay: Antibacterial activity against wild type Escherichia coli; type: functional
[2] = Inhibition of ATPase activity of Escherichia coli DNA gyrase B
[3] = (§1) Inhibition of ATPase activity of Staphylococcus aureus DNA gyrase B
Escherichia coli [4] = assay: Antibacterial activity against tol C pump knockout Escherichia coli CAG12184; type: functional
Staphylococcus aureus [5] = assay: Antibacterial activity against Staphylococcus aureus ATCC 29213; type: functional
Staphylococcus aureus [6] = assay: as §1
Streptococcus pneumoniae [7] = assay: Antibacterial activity against Streptococcus pneumoniae ATCC 10015; type: functional
Staphylococcus aureus [8] = assay: Antibacterial activity against wild type Staphylococcus aureus; type: functional
Streptococcus pneumoniae [9] = assay: Antibacterial activity against wild type Streptococcus pneumoniae; type: functional
[10] = Selectivity ratio of Ki for Escherichia coli DNA gyraseB to Ki for Staphylococcus aureus DNA gyraseB

Compound	Ki [2]	MIC (Escherichia coli [4])	further results
CC#CCOC(=O)NCc1cc(-c2sc(-c3cccnc3)nc2COC)n[nH]1	14 nM	8 µg/mL (≈ 20.1 µM)	Activity (Escherichia coli [1]): inactive; Ki [3]: 1100 nM
CCNC(=O)c1cc(-c2sc(-c3cccnc3)nc2[C@H]2CCCCN2)n[nH]1	3400 nM	> 64 µg/mL	MIC (Staphylococcus aureus [5]): > 64 µg/mL; inhibition (Staphylococcus aureus [6]): Active; MIC (Streptococcus pneumoniae [7]): > 64 µg/mL
COC(=O)NCc1cc(-c2sc(-c3cccnc3)nc2N2CCCCC2)n[nH]1	56 nM	> 64 µg/mL	Activity (Escherichia coli [1]): inactive; Ki [3]: 300 nM
CCNC(=O)c1cc(-c2sc(-c3cccnc3)nc2-c2ccc(Cl)cc2)n[nH]1	47 nM	8 µg/mL (≈ 19.5 µM)	MIC (Staphylococcus aureus [5]): 8 µg/mL (≈ 19.5 µM); MIC (Streptococcus pneumoniae [7]): 4 µg/mL (≈ 9.76 µM)
CCOC(=O)c1cc(-c2sc(-c3ccccc3)nc2C)n[nH]1	1700 nM	–	–
CCNC(=O)c1cc(-c2sc(-c3cccnc3)nc2-c2ccccc2)n[nH]1	45 nM	4 µg/mL (≈ 10.7 µM)	MIC (Staphylococcus aureus [5]): 8 µg/mL (≈ 21.3 µM); inhibition (Staphylococcus aureus [6]): Active; MIC (Streptococcus pneumoniae [7]): 2 µg/mL (≈ 5.33 µM)
CSc1cc(-c2sc(-c3ccccc3)nc2C)n[nH]1	3500 nM	–	–
CSc1cc(-c2sc(-c3cccs3)nc2C)[nH]n1	2900 nM	–	–
CC#CCOC(=O)NCc1cc(-c2sc(-c3cccnc3)nc2N2CCCCC2)n[nH]1	< 4 nM	0.5 µg/mL (≈ 1.15 µM)	Activity (Escherichia coli [1]): inactive; Ki [3]: 140 nM
CCOC(=O)c1cc(-c2sc(-c3ccccc3)nc2N2CCOCC2)n[nH]1	630 nM	–	MIC (Escherichia coli [1]): > 64 µg/mL; MIC (Staphylococcus aureus [8]): > 64 µg/mL; MIC (Streptococcus pneumoniae [9]): > 64 µg/mL
CCOC(=O)c1cc(-c2sc(-c3cccnc3)nc2C)n[nH]1	330 nM	–	–
CCc1cc(-c2sc(-c3cccs3)nc2C)n[nH]1	4800 nM	–	–
CCOC(=O)c1cc(-c2sc(-c3ccccc3)nc2-c2ccccc2)n[nH]1	140 nM	–	–
CCCc1nc(-c2ccccc2)sc1-c1cc(C(=O)OCC)[nH]n1	800 nM	–	–
CCNC(=O)c1cc(-c2sc(-c3cccnc3)nc2[C@@H]2CCCN2)n[nH]1	82 nM	32 µg/mL (≈ 86.8 µM)	–
CCOC(=O)c1cc(-c2sc(-c3cccs3)nc2C)n[nH]1	2600 nM	–	–
CCOC(=O)c1cc(-c2sc(-c3ccccc3)nc2N2CCCCC2)n[nH]1	210 nM	–	MIC (Escherichia coli [1]): > 64 µg/mL; MIC (Staphylococcus aureus [8]): > 64 µg/mL; MIC (Streptococcus pneumoniae [9]): > 64 µg/mL
CCOC(=O)c1cc(-c2sc(-c3cccnc3)nc2C2CCCCC2)n[nH]1	120 nM	–	–
CCOC(=O)c1cc(-c2sc(-c3cccnc3)nc2COC)n[nH]1	280 nM	–	MIC (Escherichia coli [1]): > 64 µg/mL; MIC (Staphylococcus aureus [8]): > 64 µg/mL; MIC (Streptococcus pneumoniae [9]): > 64 µg/mL
CCOC(=O)c1cc(-c2sc(-c3cccnc3)nc2CO)n[nH]1	670 nM	–	MIC (Escherichia coli [1]): > 64 µg/mL; MIC (Staphylococcus aureus [8]): > 64 µg/mL; MIC (Streptococcus pneumoniae [9]): > 64 µg/mL
CCOC(=O)c1cc(-c2sc(-c3cccnc3)nc2C2CC2)n[nH]1	240 nM	–	–
CCOC(=O)c1cc(-c2sc(-c3cccnc3)nc2N2CCC(C)CC2)n[nH]1	1050 nM	–	MIC (Escherichia coli [1]): > 64 µg/mL; MIC (Staphylococcus aureus [8]): > 64 µg/mL; MIC (Streptococcus pneumoniae [9]): > 64 µg/mL
CCNC(=O)c1cc(-c2sc(-c3cccnc3)nc2[C@@H]2CCCCN2)n[nH]1	40 nM	48 µg/mL (≈ 125 µM)	MIC (Staphylococcus aureus [5]): 32 µg/mL (≈ 83.7 µM); inhibition (Staphylococcus aureus [6]): Active; MIC (Streptococcus pneumoniae [7]): 1.5 µg/mL (≈ 3.92 µM)
CCNC(=O)c1cc(-c2sc(-c3cccnc3)nc2N2CCCCC2)n[nH]1	90 nM	32 µg/mL (≈ 83.7 µM)	–
CC#CCOC(=O)NCc1cc(-c2sc(-c3cccnc3)nc2C2CCCCC2)n[nH]1	< 4 nM	> 64 µg/mL	Activity (Escherichia coli [1]): inactive; Ki [3]: 69 nM
C#CCOC(=O)NCc1cc(-c2sc(-c3cccnc3)nc2N2CCCCC2)[nH]n1	11 nM	1 µg/mL (≈ 2.37 µM)	Ratio Ki [10]: 10; Activity (Escherichia coli [1]): inactive; Ki [3]: 240 nM
CCNC(=O)c1cc(-c2sc(-c3cccnc3)nc2C)n[nH]1	350 nM	> 64 µg/mL	MIC (Staphylococcus aureus [5]): > 64 µg/mL; MIC (Streptococcus pneumoniae [7]): > 64 µg/mL
CCOC(=O)c1cc(-c2sc(-c3cccnc3)nc2-c2ccccc2)n[nH]1	70 nM	–	–
CCNC(=O)c1cc(-c2sc(-c3cccnc3)nc2C2CCCCC2)n[nH]1	62 nM	16 µg/mL (≈ 41.9 µM)	–
COC(=O)NCc1cc(-c2sc(-c3ccccc3)nc2N2CCC(O)CC2)[nH]n1	1080 nM	> 64 µg/mL	Activity (Escherichia coli [1]): inactive
